Patent publication US20240366756A1, “COMBINATIONS AND USES THEREOF” (Incyte Corporation, priority 2011, published 2024)
Marks after values point to notes of the source that are not given here.

T1: Human CD19 (human, UniProt P15391 20-556)
T1 sequence: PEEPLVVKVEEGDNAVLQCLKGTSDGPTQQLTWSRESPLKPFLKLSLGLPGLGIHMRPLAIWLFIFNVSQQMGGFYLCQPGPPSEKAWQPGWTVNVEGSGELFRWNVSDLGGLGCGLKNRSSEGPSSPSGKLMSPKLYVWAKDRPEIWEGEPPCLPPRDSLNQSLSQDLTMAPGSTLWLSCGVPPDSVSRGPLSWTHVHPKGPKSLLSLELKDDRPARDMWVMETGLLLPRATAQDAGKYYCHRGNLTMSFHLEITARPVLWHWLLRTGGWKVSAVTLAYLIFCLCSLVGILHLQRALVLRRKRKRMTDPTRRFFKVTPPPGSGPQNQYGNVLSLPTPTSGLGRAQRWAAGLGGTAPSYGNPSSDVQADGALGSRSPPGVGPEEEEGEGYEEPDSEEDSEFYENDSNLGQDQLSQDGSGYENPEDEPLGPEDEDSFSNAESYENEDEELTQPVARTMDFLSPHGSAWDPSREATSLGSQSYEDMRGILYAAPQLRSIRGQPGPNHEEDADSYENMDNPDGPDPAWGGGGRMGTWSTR


What was measured:
MEC-1 cells = assay: Cytotoxicity/ADCC cell killing of MEC-1 cells with PBMCs (FACS, propidium iodide); assay type: cell-based, human; conditions: for normalized specific killing: combination set to 1, Bendamustine 100 μg/ml, MOR00208 6.6 pM; for % dead cells: MOR00208 6.6 pm, BEN 100 μg/ml (48 h pre-incubation), E:T 30:1, 4 h, control RefMab33
Excerpt: MEC-1 cells: chronic B-cell leukemia cell line DSMZ #ACC497; Cell Medium: Iscove's Modified Dulbecco's Medium (IMDM) with GlutaMAX™, Invitrogen, Cat No.: 31980-048, 20% FCS; PBMCs: RPMI1640, with stabile Glutamine, PAN Biotech GmbH, Cat No.: P04-13500 supplemented with 10% FCS; Biocoll: Biochrome AG CAT No.: L6115 LOT No.: 1050T; Bendamustine: Mundipharma LOT No.: 88018; FCS: PAN CAT No.: 3302-P282403 LOT No.: P282403; and RefmAb33 (anti-RSV) with same Fc region as MOR00208.
The cytotoxicity of MOR00208 and bendamustine alone and in combination was tested in MEC-1 cells. BEN is an alkylating agent, therefore, functions via direct cytoxicity in MEC-1 cells. MOR00208 targets CD19 and additionally functions via ADCC in killing MEC-1 cells. For the following groups MEC-1 cell killing was measured: BEN at 100 μg/ml; MOR00208 at 6.6 pm and the combination of MOR00208 at 6.6 pm and BEN at 100 μg/ml. […] The following were used as controls: RefmAb33, or PBMCs alone. In both the BEN group and MOR00208+BEN combination group, MEC-1 cells were pre-incubated with BEN 48 hours prior to the ADCC assay measurements. The MEC-1 cells were stained using 1 mg/ml Calcein AM then counted and adjusted to 2×10^5/ml. The PBMCs were counted and adjusted to 6×10^6/ml. The cell killing assays were done as follows: using 96 well plates, a 100 μl cell suspension of MEC-1 cells was added per well, then 100 μl cell suspension of PBMCs was added to each well resulting in an E:T ratio of 30:1. The antibodies were diluted to 1 μg/ml in medium. Cells were centrifuged and re-suspended. To the target:effector cell-pellet, 100 μl antibody solution or according control solution was added. The mixture was incubated for 4 h in CO2-incubator at 37° C. The cell killing measurements were taken as follows: the incubated cell solution (˜100 μl) was transferred into FACS tubes and 200 μl FACS buffer (DPBS+3% FCS) and 0.5 μl PI stock solution was added to each tube. FACS-Calibur was used. Dead MEC-1 cells were stained with propidium iodide.
The values represent % dead cells. Each experiment represents PBMCs from different donors. The controls used for each experiment was RefMab33.
The values shown in Table 2 are calculated as follows: 1) from the raw data (% dead cells) shown in Table 1, the background (controls) were subtracted, resulting in the specific killing for each treatment group; then 2) the specific killing values were normalized by setting the combination of MOR00208+BEN to 1. The averages of Table 2 are depicted in FIG. 5.
[…] (CI) calculations were completed in order to determine synergy of the combination of the exemplified anti-CD19 antibody and bendamustine as compared to MOR00208 and BEN alone. Such calculations are described in Ting-Chao Chou, Theoretical Basis, Experimental Design, and Computerized Simulation of Synergism and Antagonism in Drug Combination Studies, Pharmacol Rev 58:621-681 (2006), which is incorporated by reference in its entirety and Chou T C, Talalay P, Quantitative analysis of dose-effect relationships: the combined effects of multiple drugs or enzyme inhibitors. Adv Enzyme Regul 22:27-55 (1984), which is incorporated by reference in its entirety. The methods of Chou-Talalay are carried out using the CI-isobol method.
The median-effect equation models of the effect of an inhibitor (such as a drug) as Fa/Fu=(D/D50)^m, where D is the dose, Fa and Fu is the fraction of the system affected and unaffected by the dose D (Fa+Fu=1); D50 is the dose producing the median effect (e.g. IC50, ED50, LD50). The constant m determines the shape of the dose-effect curve. We used Excel Fit software to carry out a linear regression calculation to estimate the parameters m and D50.
The effects of the combination on MEC-1 cells is measured % cell death as described above.

[1] = tested on: RAMOS human Burkitt's lymphoma cells; assay: Human Non-Hodgkin RAMOS tumor in SCID mice, survival model; assay type: in vivo; conditions: for Median Survival (Days Post-Inoculation): treatment related deaths excluded; for Median % Increase in Lifespan (ILS): vs. vehicle control/Ref_mAb_33; for Survival, pairwise comparison (Holm-Sidak) vs. Group 3: Group 3 = Bendamustine (16 mg/kg), listed as Bendamustine = 13 mg/kg
Experimental: Cyclophosphamide (Baxter, Lot. No. 1A548C); Vehicle Control: 0.9% sodium chloride, 25 mg/ml mannitol, pH 6.5-6.8 (adjusted with 0.01 M NaOH); SCID Mice (University of Adelaide, Waite Campus, Urrbaraie, SA, Australia, Strain C.B.-17-Igh-1^b-Prkdc^scid); RAMOS human Burkitt's lymphoma cells (ATCC number CRL-1596); Ref_mAb_33_IgG_Xen (10 mg/mL in PBS, referred to as Ref_mAb_33); Bendamustine (Mundipharma, Lot No. 83889).
SCID mice were pre-treated with Cyclophosphamide (75 mg/kg, i.p., twice daily) for two days prior to RAMOS cell inoculation (Day −2 and −1). On the day of inoculation (Day 0), the mice were separated into seven groups of ten mice each, and inoculated with 1×10^6 RAMOS cells each intravenously into the tail vein. The planned dosing regimen for each group is shown in Table 5 and commenced on Day 3. The study duration was 60 days.
From the raw data shown in Table 6, both the median survival in days and median increase in lifespan were calculated. All treatment related deaths were excluded in the calculations.
Median % Increased Lifespan (ILS) is calculated as follows: […]
The classification of the MOR000208/Bendamustine combination therapy (combo) effect was evaluated by comparing the ILS of the combination with the added ILS of the respective monotherapies:
Synergy/Potentiation*: ILSCombo>ILSMOR00208 3 mg/kg+ILSBendamustine. Synergistic effects are classified as potentiation if at least one of the monotherapies has no effect. Additivity: ILSCombo=ILSMOR00208 3 mg/kg+ILSBendamustine. Antagonism: ILSCombo<ILSMOR00208 3 mg/kg+ILSBendamustine.
In addition to an analysis of the data for purposes of identifying synergy, the following statistical analysis was also completed. Statistical analyses were carried out using the median values. Any animal that died unexpectedly or was culled prior to Day 17 of the study in the Test Article treatment groups was excluded from survival analysis calculation. The death/culling of these animals was attributed to compound toxicity rather than disease progression as they occurred well in advance of the first deaths in the Vehicle Control animals. A survival curve was created using the product limit of Kaplan and Meier, and survival curves compared using the log-rank (Mantel-Cox) test. Where significant differences were found, All Pairwise Multiple Comparison (Holm-Sidak Test) was performed. Comparison was done between all groups. In addition the comparison of the following groups were summarised in separate figures for each test article: Vehicle Control/Ref_mAb (group 10) against Bendamustine groups (Groups 2, 3 and 4) and Vehicle Control/Ref_mAb (group 10) against Combination groups (Groups 5 and 6) or respective MOR00208 monotherapy group (group 1). A p value of less than 0.05 was considered significant.

Human CD19 = target: T1, Human CD19; assay: cell-based or functional assay

| Molecule | normalized specific killing (MEC-1 cells; Average of experiments 1-3) | % dead cells (MEC-1 cells; Experiment 1 (PBMC donor)) | normalized specific killing (MEC-1 cells; Experiment 1, background subtracted) | % dead cells (MEC-1 cells; Experiment 2 (PBMC donor)) | normalized specific killing (MEC-1 cells; Experiment 2, background subtracted) | % dead cells (MEC-1 cells; Experiment 3 (PBMC donor)) | normalized specific killing (MEC-1 cells; Experiment 3, background subtracted) | EC50 (MEC-1 cells; Homo sapiens, MEC1, read-out: EC50 (MEC-1 cell killing)) | Bonferroni's Multiple Comparison Test Mean Diff. (MEC-1 cells; normalized specific killing, monotherapy vs. BEN + MOR00208 combination) | Median Survival (Days Post-Inoculation) ([1]; 13 mg/kg) | Median % Increase in Lifespan (ILS) ([1]; 13 mg/kg) | Median Survival (Days Post-Inoculation) ([1]; 16 mg/kg) | Median % Increase in Lifespan (ILS) ([1]; 16 mg/kg) | Survival, pairwise comparison (Holm-Sidak) vs. Group 3 ([1]; Table 8) | Survival, pairwise comparison (Holm-Sidak) vs. Group 3 ([1]; untitled repeat of Table 8) | EC50 of MEC-1 cell killing (ADCC with human PBMCs) (Human CD19) |
| --- | --- | --- | --- | --- | --- | --- | --- | --- | --- | --- | --- | --- | --- | --- | --- | --- |
| Cn1c(CCCC(=O)O)nc2cc(N(CCCl)CCCl)ccc21 [Bendamustine, reference compound] | 0.8 | 83.6% | 0.85 | 53.3% | 0.75 | 75.6% | 0.85 | ~100 µg/mL | −0.1834 | 24^b Days Post-Inoculation | −5.88% | 24^c Days Post-Inoculation | −5.88% | No (No: There is no statistically significant difference (p ≥ 0.05).) | No (No: There is no statistically significant difference (p ≥ 0.05).) |  |
| MOR00208 (antibody, human IgG1, kappa, V domains shown) VH: EVQLVESGGGLVKPGGSLKLSCAASGYTFTSYVMHWVRQAPGKGLEWIGYINPYNDGTKYNEKFQGRVTISSDKSISTAYMELSSLRSEDTAMYYCARGTYYYGTRVFDYWGQGTLVTVSS VL: DIVMTQSPATLSLSPGERATLSCRSSKSLQNVNGNTYLYWFQQKPGQSPQLLIYRMSNLNSGVPDRFSGSGSGTEFTLTISSLEPEDFAVYYCMQHLEYPITFGAGTKLEIKR |  |  |  |  |  |  |  |  |  |  |  |  |  |  |  | ~6.6 pM |
